Assays:
[1] = test system: human acute lymphoblastic leukemia line C.E.M.; settings: cited from earlier work
[2] = versus methotrexate, daunorubicin, and vincristine; cited from earlier work
[3] = test system: Raji cells; experiment: Effect on the growth of Raji cells (CCK-8); settings: 3 days
Experimental: Briefly, 10 thousands cells in 100 μL of DMEM:F12 (GBICO, CA) culture medium without serum were seeded into each well of a 96-well plate. Twice-fold serial dilutions of antibodies or conjugated form were prepared and each diluted antibodies were added in triplicate to the wells and the cultures were incubated at 37° C. for 3 days. The controls consisted of either medium alone or medium containing of Raji cell. After incubation, CCK-8 was added to each well and the absorbance at 450 nm of each well was determined in a Spectra Max spectrophotometer (Molecular Devices, Sunnyvale, Calif.).

[4] = test system: EGFR positive tumor cell line A431; experiment: Growth inhibition, relative cell proliferation with CCK-8, A431; type: cell-based, human; settings: A431, 72 hours
Experimental: Briefly, cells were detached by using 0.25% (vol/vol) trypsin and suspended in complete medium. Aliquots of cells were plated into 96-well microdilution plates. […] After 72 hours, plates were washed twice with PBS (pH 7.5), and analyzed for relative cell proliferation with CCK-8 reagent.

[5] = test system: tubulin; experiment: HTS-Tubulin Polymerization Assay Kit, tubulin polymerization in vitro; type: biochemical; settings: 1 μM preparations, 10 μL added to 100 μL 4 mg/ml tubulin; 405 nm, 37° C.; compared with the PBS buffer
Experimental: According to the instruction of kit, pre-warm the 96-well plate to 37° C. for 30 min prior to starting the assay. At the same time, the spectrophotometer (SpectraMax, Molecular Devices, USA) was set as follow: wavelength, 405 nm; temperature, 37° C.; Kinetic, 31 cycles of 1 reading per minute. Make cold G-PEM buffer (990 μL General Tubulin Buffer+10 μL GTP Stock) and keep it on ice. […] Immediately place the plate into the spectrophotometer and start recording using the kinetic setup described above. […] Nocodazole, the tubulin polymerization inhibitor, was set as a negative control. The metabolite Cys-3AA-MDC was prepared by reaction of 3AA-MDC with cysteine under the base DIEA in CH2Cl2. LC-MS (M+H^+) calc.: 964.5. found: 964.2. Rt: 12.97 min. The metabolite Lys-MCC-MDC was prepared by reaction of SMCC-MDC with lysine under the base DIEA in DMF. LC-MS (M+H^+) calc.: 1103.7. found: 1103.2. Rt: 13.00 and 13.18 min.

COc1cc2cc(c1Cl)N(C)C(=O)C[C@H](OC(=O)[C@H](C)N(C)C(C)=O)[C@]1(C)O[C@H]1[C@H](C)[C@@H]1C[C@@](O)(NC(=O)O1)[C@H](OC)/C=C/C=C(\C)C2 [Maytansine]
concentration inhibiting C.E.M. line (as low as) [1]: 10^−7 μg/mL
fold more cytotoxic than conventional chemotherapeutic agents [2]: 100- to 1000 fold

Bat1206: monoclonal antibody (rituximab) binding the extracellular domain of CD20
inhibition of CD20 positive cell growth [3]: inhibitory effects
inhibition of A431 cell proliferation [4]: had no effects on A431 cells

COc1cc2cc(c1Cl)N(C)C(=O)C[C@H](OC(=O)[C@H](C)N(C)C(=O)CCCCCN1C(=O)C=CC1=O)[C@]1(C)OC1[C@H](C)[C@@H]1C[C@@](O)(NC(=O)O1)[C@H](OC)/C=C/C=C(\C)C2 (stereo partly shown) [3AA-MDC, N2′-deacetyl-N2′-(6-maleimido-1-oxo-hexyl)maytansine]
inhibition of tubulin polymerization [5]: significantly inhibited the tubulin polymerization

CN[C@@H](C)C(=O)OC1CC(=O)N(C)c2cc(cc(OC)c2Cl)C/C(C)=C/C=C/C(OC)C2(O)CC(OC(=O)N2)C(C)C2OC12C (stereo partly shown) [Cys-3AA-MDC]
inhibition of tubulin polymerization [5]: significantly inhibited the tubulin polymerization

COc1cc2cc(c1Cl)N(C)C(=O)C[C@H](OC(=O)[C@H](C)N(C)C(=O)CCSC1CC(=O)N(CC3CCC(C(=O)NCCCC[C@H](N)C(=O)O)CC3)C1=O)[C@]1(C)O[C@H]1[C@H](C)[C@@H]1C[C@@](O)(NC(=O)O1)[C@H](OC)/C=C/C=C(\C)C2 (stereo partly shown) [Lys-mcc-MDC]
inhibition of tubulin polymerization [5]: significantly inhibited the tubulin polymerization

Source: US8877706B2, “Maytansinoid derivatives” (Bio-Thera Solutions, Ltd., Co., priority 2012, dated 2014)
